Tests used:
[1] = Stability of chelates to autoclaving (CM-Sephadex assay); type: physicochemical; details: for % of total / dpm: autoclaved 30 minutes at 121° C.
Description: A sample comprising 5 ml of Sm-DTPA, La-DTPA, and Eu-DTPA prepared in Examples 9, 10, and 11 were placed in 10 ml glass bottles, each capped with a grey butyl rubber cap, and the caps were crimped. Samples were autoclaved for 30 minutes at 121° C.
Five ml of each of Sm-DOTA, La-DOTA, and Eu-DOTA prepared in Examples 13, 14, and 15 were placed in 10 ml glass bottles capped with a grey butyl rubber cap and crimped. Samples were autoclaved for 30 minutes at 121° C. Samples were allowed to cool to room temperature and were assayed as described in Examples 25.

[2] = Kinetics of blood depletion and urine accumulation of chelates in the rat; type: in vivo; details: average of three rats
Description: One half ml of Sm-DTPA (0.01 mg/kg), dissolved in saline (pH 7), is injected into the tail vein of three rats. Samples of blood are obtained at 10, 30 and 60 minutes following injection and analyzed for Sm-DTPA by neutron activation. The percent of starting amount of the Sm-DTPA at each time interval is presented in Table 18 (last column on right). Similarly, the accumulation of Sm-DTPA in the rat urine at two times is shown in the last column of Table 18.
One half ml of Technetium-99m-DTPA (1 millicurie), Gd-DTPA (0.05 mg/kg), and Sm-DTPA (0.01 mg/kg) are each dissolved in saline (pH 7), and are injected simultaneously into the tail vein of three rats. Samples of blood are obtained at 10, 30 and 60 minutes following injection and analyzed for ^99mTc-DTPA (gamma counting), Gd-DTPA (T1 relaxation) and Sm-DTPA (neutron activation).
One half ml of Sm-DTPA, La-DTPA and Eu-DTPA (each 0.01 mg/kg), dissolved in saline (pH 7) are injected simultaneously into the tail vein of three rats. Samples of blood are obtained at 10, 30 and 60 minutes following injection and analyzed for each element by neutron activation.
Samples of Sm-DTPA, La-DTPA and Eu-DTPA (0.5 ml; 0.01 mg/kg), each dissolved in saline (pH 7), are injected sequentially at 0, 20, and 40 minutes into the tail vein of three rats. Samples of blood are obtained at 10, 30 and 60 min following each injection and analyzed for each element by neutron activation.

[3] = Assay of chelate on carboxymethyl (CM) Sephadex column (chelate formation, charge); type: physicochemical
[4] = Fraction 1: sample diluted 1:10 then 2-3 ml 0.01M Tris pH 7.5 (eluate)
[5] = Fraction 2: 3 ml 0.01M Tris pH 7.5
[6] = Fraction 3: column and contents (retained)
[7] = Fraction 1: 3 ml 0.01M Tris pH 7.5 before sample
[8] = Fraction 2: 1 ml sample then 3 ml 0.01M Tris pH 7.5 (eluate)
[9] = Fraction 3: further 3 ml 0.01M Tris pH 7.5
[10] = Fraction 4: column and contents (retained)

## O=C([O-])CN(CCN(CC(=O)[O-])CC(=O)[O-])CCN(CC(=O)[O-])CC(=O)[O-].[Sm+3] [Sm-DTPA]
[1]
  % eluted from CM-Sephadex column following autoclaving: 100%
[1]; [4]
  % of total: 98 % of total
  dpm: 1128928 dpm
[1]; [5]
  % of total: 2 % of total
  dpm: 26387 dpm
[1]; [6]
  % of total: 0 % of total
  dpm: 1867 dpm
[2]; blood 10 min, Sm-DTPA 0.01 mg/kg i.v. administered alone (Example 29)
  Percent of initial injection, blood: 86% of initial injection
[2]; blood 10 min, Sm-DTPA, La-DTPA and Eu-DTPA (each 0.01 mg/kg i.v.) simultaneously administered (Example 31)
  Percent of initial injection, blood: 83% of initial injection
[2]; blood 10 min after each injection, Sm-DTPA, La-DTPA, Eu-DTPA (0.01 mg/kg i.v.) sequentially administered at 0, 20, 40 minutes (Example 32)
  Percent of initial injection, blood: 81% of initial injection
[2]; blood 10 min after i.v. injection, ^99mTc-DTPA, Gd-DTPA and Sm-DTPA simultaneously administered (Example 30)
  Percent of initial injection, blood: 88% of initial injection
[2]; blood 30 min, Sm-DTPA 0.01 mg/kg i.v. administered alone (Example 29)
  Percent of initial injection, blood: 61% of initial injection
[2]; blood 30 min, Sm-DTPA, La-DTPA and Eu-DTPA simultaneously administered (Example 31)
  Percent of initial injection, blood: 61% of initial injection
[2]; blood 30 min, ^99mTc-DTPA, Gd-DTPA and Sm-DTPA simultaneously administered (Example 30)
  Percent of initial injection, blood: 60% of initial injection
[2]; blood 30 min after each injection, sequentially administered (Example 32)
  Percent of initial injection, blood: 59% of initial injection
[2]; blood 60 min, Sm-DTPA 0.01 mg/kg i.v. administered alone (Example 29)
  Percent of initial injection, blood: 28% of initial injection
[2]; blood 60 min, Sm-DTPA, La-DTPA and Eu-DTPA simultaneously administered (Example 31)
  Percent of initial injection, blood: 34% of initial injection
[2]; blood 60 min, ^99mTc-DTPA, Gd-DTPA and Sm-DTPA simultaneously administered (Example 30)
  Percent of initial injection, blood: 33% of initial injection
[2]; blood 60 min after each injection, sequentially administered (Example 32)
  Percent of initial injection, blood: 29% of initial injection
[2]; urine 30 min, Sm-DTPA 0.01 mg/kg i.v. administered alone (Example 29)
  Percent of initial injection, urine: 24% of initial injection
[2]; urine 30 min, Sm-DTPA, La-DTPA and Eu-DTPA simultaneously administered (Example 31)
  Percent of initial injection, urine: 22% of initial injection
[2]; urine 30 min, ^99mTc-DTPA, Gd-DTPA and Sm-DTPA simultaneously administered (Example 30)
  Percent of initial injection, urine: 26% of initial injection
[2]; urine 30 min, sequentially administered (Example 32)
  Percent of initial injection, urine: 20% of initial injection
[2]; urine 180 min, Sm-DTPA 0.01 mg/kg i.v. administered alone (Example 29)
  Percent of initial injection, urine: 91% of initial injection
[2]; urine 180 min, Sm-DTPA, La-DTPA and Eu-DTPA simultaneously administered (Example 31)
  Percent of initial injection, urine: 90% of initial injection
[2]; urine 180 min, ^99mTc-DTPA, Gd-DTPA and Sm-DTPA simultaneously administered (Example 30)
  Percent of initial injection, urine: 90% of initial injection
[2]; urine 180 min, sequentially administered (Example 32)
  Percent of initial injection, urine: 89% of initial injection
[3]
  % eluted from the CM-Sephadex column: 98%
[3]; [7]
  % of total: 0 % of total
  dpm: 0 dpm
[3]; [8]
  % of total: 97 % of total
  dpm: 148208 dpm
[3]; [9]
  % of total: 1 % of total
  dpm: 19089 dpm
[3]; [10]
  % of total: 2 % of total
  dpm: 24257 dpm
[3]; room temperature, Tris pH 7.5
  time within which the chelate forms: ≤ 5 min

Reference: US7048907B2, “Synthesis, compositions and methods for the measurement of the concentration of stable-isotope labeled compounds in life forms and life form excretory products” (BioPhysics Assay Laboratory, Inc., priority 2001, dated 2006)
